Counter-ions that a name gives are not always drawn. Like-named read-outs stand apart in the source and are kept apart here.
Assays:
[1] = tested on: Aβ1-42; test: Aβ1-42 content in conditioned medium of primary cortico-hippocampal neuron cultures from Tg2576 mice (ELISA; primary and secondary dose-response screening); type: cell-based, mouse; conditions: for activity at 100 µM: Mus musculus, Neuron, 24 h, read-out: Ab1-42 (% of ctl); for activity at 100 µM / Ab1-42 (% of ctl): drug 100 μM; for reducing Aβ1-42: <85% of ctl
Method: (§1) Potential Aβ-lowering activity was assessed for 150 commercially available cardiovascular drugs using primary cortico-hippocampal neuron cultures derived from embryonic Tg2576 (El 6). […] All cardiovascular reagents were obtained from MicroSource Discovery Systems Inc (Gaylordsville, Conn.). […] Individual cardiovascular agents were applied directly to the culture medium (final 1% DMSO in the culture media). In control studies, parallel Tg2576 primary neuron cultures were treated with vehicle (1% DMSO) alone. The influence of drug treatments in Aβ content in the conditioned medium in treated cultures was assessed by assessing steady state levels of Aβ1-40 and Aβ1-42 in the culture media 24 hours after treatment.
(§2) Embryonic brain tissue was mechanically triturated and centrifuged. Neurons were seeded onto poly-D-lysine-coated 96-well plates at 1.0×10^5 cells per well and cultured in the serum-free chemically-defined medium Neurobasal, supplemented with 2% B27, 0.5 mM L-glutamine and 1% penicillin-streptomycin (Gibco-BRL).
(§3) For primary screening, cultured neurons were treated with 100 μM of drug in duplicates for 16 hours; all drugs were obtained in stock from MicroSource Discovery Systems Inc (Gaylordsville, Conn.). Conditioned medium was collected for Aβ detection using commercially available ELISA kits (BioSource). […] Primary neurons prepared in 96-well plates were treated with 0.1 μM, 1 μM, 10 μM, 50 μM, and 100 μM of each drug in duplicate for ˜16 hours and conditioned medium was collected for Aβ detection.

[2] = tested on: primary cortico-hippocampal neuron cultures; test: lactate dehydrogenase (LDH) activity assay in parallel neuron cultures
Method: For in vitro treatments drugs available from “The Spectrum Collection” in stocks of 10 mM in DMSO were applied directly to cultures to the desired concentrations (final 1% DMSO); control primary neuron cultures from Tg2576 embryos were treated with vehicle resulting in a final 1% DMSO.
Cell viability was assessed using a commercial available LDH assay kit according to the manufacture's instruction (Promega).

[3] = tested on: primary cortico-hippocampal neuron cultures; test: MTT in primary screening
[4] = tested on: Aβ1-40; test: Aβ1-40 content in conditioned medium of primary cortico-hippocampal neuron cultures from Tg2576 mice (ELISA; primary and secondary dose-response screening); type: cell-based, mouse; conditions: for activity at 100 µM: Mus musculus, Neuron, 24 h, read-out: Ab1-40 (% of ctl); for activity at 100 µM / Ab1-40 (% of ctl): drug 100 μM; for reduced Aβ1-40: <85% of ctl
Method: as §1, §2, §3

[5] = Primary Screening, table sorted by Aβ1-40
[6] = primary screening, Tg2576 neuron cultures, table sorted by Aβ1-42
[7] = primary screening, table sorted by Aβ1-42

| LDH (% of ctl) [2, 5] | LDH (% of ctl) [2, 7] | MTT (% of ctl) [3, 5] | MTT (% of ctl) [3, 7] | LDH at E-5M % of change ([2]; drug at E-5M) [%] | EC50 ([4]; secondary dose-response screening 0.01-100 μM, 24 hours, read-out: EC50 (molar) Aβ1-40) [µM] | Molecule | activity at 100 µM [1, 5] [%] | activity at 100 µM [1, 6] [%] | activity at 100 µM [4, 5] [%] | activity at 100 µM [4, 6] [%] | reducing Aβ1-42 ([1]; primary screening) | reduced Aβ1-40 ([4]; primary screening) | Ab1-42 (% of ctl) [1, 5] | Ab1-42 (% of ctl) [1, 6] | Ab1-40 (% of ctl) [4, 5] | Ab1-40 (% of ctl) [4, 6] |
| --- | --- | --- | --- | --- | --- | --- | --- | --- | --- | --- | --- | --- | --- | --- | --- | --- |
| 111.1 % of ctl | 111.1 % of ctl | 96.8 % of ctl | 96.8 % of ctl |  |  | CCN(CC)CCNC(=O)c1ccc(N)cc1 [Procainamide Hydrochloride] | 109 | 109 | 118 | 118 |  |  |  |  |  |  |
| 109.4 % of ctl | 109.4 % of ctl | 98.0 % of ctl | 98.0 % of ctl |  |  | COC(=O)[C@H]1[C@H]2C[C@H]3c4[nH]c5ccccc5c4CCN3C[C@H]2CC[C@@H]1O [Rauwolscine Hydrochloride] | 74.3 | 74.3 | 103 | 103 | useful in reducing Aβ1-42 |  |  |  |  |  |
| 106.2 % of ctl | 106.2 % of ctl | 99.7 % of ctl | 99.7 % of ctl |  |  | COc1cc2ccc(=O)oc2cc1O [Scopoletin] | 109 | 109 | 71.9 | 71.9 |  | reduced Aβ1-40 |  |  |  |  |
| 96.1 % of ctl | 96.1 % of ctl | 97.8 % of ctl | 97.8 % of ctl |  |  | COc1ccc([C@@H]2Sc3ccccc3N(CCN(C)C)C(=O)[C@@H]2OC(C)=O)cc1 [Diltiazem Hydrochloride] | 98.9 | 98.9 | 108 | 108 |  |  |  |  |  |  |
| 75.6 % of ctl | 75.6 % of ctl | 101.4 % of ctl | 101.4 % of ctl |  |  | CCC(=O)O[C@@H](O[P@](=O)(CCCCc1ccccc1)CC(=O)N1C[C@H](C2CCCCC2)C[C@H]1C(=O)O)C(C)C [Fosinopril Sodium] | 95 | 95 | 94.7 | 94.7 |  |  |  |  |  |  |
| 108.9 % of ctl | 108.9 % of ctl | 88.8 % of ctl | 88.8 % of ctl |  |  | CC(C)NCC(O)c1ccc2ccccc2c1 (centres unmarked) [Pronetalol Hydrochloride] | 94.6 | 94.6 | 88 | 88 |  |  |  |  |  |  |
| 281.1 % of ctl | 281.1 % of ctl | 102.1 % of ctl | 102.1 % of ctl |  |  | NS(=O)(=O)c1cc2c(cc1Cl)NCNS2(=O)=O [Hydrochlorothiazide] | 116 | 116 | 89.5 | 89.5 |  |  |  |  |  |  |
| 104.7 % of ctl | 104.7 % of ctl | 88.9 % of ctl | 88.9 % of ctl | 5.0 | 36.1 | NS(=O)(=O)c1cc2c(cc1C(F)(F)F)NC(Cc1ccccc1)NS2(=O)=O (centres unmarked) [Bendrofumethiazide] |  |  |  |  | useful in reducing Aβ1-42 | reduced Aβ1-40 | 58.4 % of ctl | 58.4 % of ctl | 76.2 % of ctl | 76.2 % of ctl |
| 111.3 % of ctl | 111.3 % of ctl | 109.4 % of ctl | 109.4 % of ctl |  |  | CCCc1nc2c(C)cc(-c3nc4ccccc4n3C)cc2n1Cc1ccc(-c2ccccc2C(=O)O)cc1 [Telmisartan] | 112 | 112 | 91.1 | 91.1 |  |  |  |  |  |  |
| 112.5 % of ctl | 112.5 % of ctl | 98.9 % of ctl | 98.9 % of ctl |  |  | CCCCC1=NC2(CCCC2)C(=O)N1Cc1ccc(-c2ccccc2-c2nnn[nH]2)cc1 [Irbesartan] | 82.3 | 82.3 | 89.7 | 89.7 | useful in reducing Aβ1-42 |  |  |  |  |  |
| 103.5 % of ctl | 103.5 % of ctl | 99.5 % of ctl | 99.5 % of ctl |  |  | CCOC(=O)[C@H](CCc1ccccc1)N[C@H]1CCc2ccccc2N(CC(=O)O)C1=O [Benazepril Hydrochloride] | 115 | 115 | 116 | 116 |  |  |  |  |  |  |
| 192.3 % of ctl | 192.3 % of ctl | 70.2 % of ctl | 70.2 % of ctl |  |  | Phenylbutyrate Sodium |  |  |  |  |  |  | 86.6 % of ctl | 86.6 % of ctl | 102.1 % of ctl | 102.1 % of ctl |
| 112.0 % of ctl | 112.0 % of ctl | 97.8 % of ctl | 97.8 % of ctl |  |  | CC1=NS(=O)(=O)c2cc(Cl)ccc2N1 [Diazoxide] | 98.9 | 98.9 | 114 | 114 |  |  |  |  |  |  |
| 118.9 % of ctl | 118.9 % of ctl | 126.4 % of ctl | 126.4 % of ctl |  |  | CCOC(=O)[C@H](CCc1ccccc1)N[C@@H](C)C(=O)N1CCC[C@H]1C(=O)O [Enalapril Maleate] | 97.6 | 97.6 | 101 | 101 |  |  |  |  |  |  |
| 102.6 % of ctl | 102.6 % of ctl | 105.5 % of ctl | 105.5 % of ctl |  |  | NS(=O)(=O)c1cc2c(cc1Cl)NC(C(Cl)Cl)NS2(=O)=O (centres unmarked) [Trichlormethiazide] | 84.5 | 84.5 | 89.3 | 89.3 | useful in reducing Aβ1-42 |  |  |  |  |  |
| 1127.4 % of ctl | 1127.4 % of ctl | 15.0 % of ctl | 15.0 % of ctl |  |  | CCOC(=O)[N-]c1cn(N2CCOCC2)n[o+]1 [Molsidomine] | 121 | 121 | 118 | 118 |  |  |  |  |  |  |

| Molecule | LDH (% of ctl) [2, 5] | LDH (% of ctl) [2, 7] | MTT (% of ctl) [3, 5] | MTT (% of ctl) [3, 7] | LDH at E-5M % of change ([2]; drug at E-5M) [%] | EC50 ([4]; secondary dose-response screening 0.01-100 μM, 24 hours, read-out: EC50 (molar) Aβ1-40) [µM] | activity at 100 µM [1, 5] [%] | activity at 100 µM [1, 6] [%] | activity at 100 µM [4, 5] [%] | activity at 100 µM [4, 6] [%] | reducing Aβ1-42 ([1]; primary screening) | reduced Aβ1-40 ([4]; primary screening) | Ab1-42 (% of ctl) [1, 5] | Ab1-42 (% of ctl) [1, 6] | Ab1-40 (% of ctl) [4, 5] | Ab1-40 (% of ctl) [4, 6] |
| --- | --- | --- | --- | --- | --- | --- | --- | --- | --- | --- | --- | --- | --- | --- | --- | --- |
| CC(N)CCCC(C)(C)O (centres unmarked) [Heptaminol Hydrochloride] | 103.4 % of ctl | 103.4 % of ctl | 103.4 % of ctl | 103.4 % of ctl |  |  | 105 | 105 | 112 | 112 |  |  |  |  |  |  |
| CC(=O)O[C@H]1C[C@H](O[C@H]2[C@@H](O)C[C@H](O[C@H]3[C@@H](O)C[C@H](O[C@H]4CC[C@@]5(C)[C@H](CC[C@@H]6[C@@H]5C[C@@H](O)[C@]5(C)[C@@H](C7=CC(=O)OC7)CC[C@]65O)C4)O[C@@H]3C)O[C@@H]2C)O[C@H](C)[C@H]1O[C@@H]1O[C@H](CO)[C@@H](O)[C@H](O)[C@H]1O [Lanatoside C] | 166.0 % of ctl | 166.0 % of ctl | 66.5 % of ctl | 66.5 % of ctl |  |  |  |  |  |  |  | reduced Aβ1-40 | 100.3 % of ctl | 100.3 % of ctl | 45.8 % of ctl | 45.8 % of ctl |
| CC(=O)CC(c1ccccc1)c1c(O)c2ccccc2oc1=O (centres unmarked) [Warfarin] | 106.6 % of ctl | 106.6 % of ctl | 100.1 % of ctl | 100.1 % of ctl |  |  | 107 | 107 | 89.4 | 89.4 |  |  |  |  |  |  |

Reference: patent US20100029654A1, “CARDIOVASCULAR COMPOSITIONS AND USE OF THE SAME FOR THE TREATMENT OF ALZHEIMER'S DISEASE” (MOUNT SINAI SCHOOL OF MEDICINE, priority 2006, published 2010)
